The nature of data set [1]: Binding of PEG(2,000)-α-AHPDP-ω-protein to hydroxyapatite in vitro. As to conditions: 37° C., 5 mM sodium phosphate buffer pH 7.2; for adsorption to hydroxyapatite (in words): 1^1/2 hour incubation; for percentage adsorbed to hydroxyapatite: by 1^1/2 hour incubation. Here is the method:
Hydroxyapatite (Fast Flow, Fluka, 120 mg) was equilibrated in 1 ml of 5 mM sodium phosphate buffer, pH 7.2 for 24 hours at 37° C. Native lysozyme or the PEG-lysozyme conjugate was mixed with the hydroxyapatite suspension in a 1:1 volume ratio and stirred at 37° C. Samples were taken from the mixture at various time points and analyzed for the percentage of unbound protein or PEG-protein conjugate by gel permeation chromatography. […] All samples had similar protein concentrations.

Data set [2] in a line: Binding of PEG-AHPDP derivatives to hydroxyapatite in vitro. The following applies: 37° C., 5 mM sodium phosphate buffer pH 7.2. The method, then: Hydroxyapatite (Fast Flow, Fluka, 12 mg) was equilibrated in 1 ml of 5 mM sodium phosphate buffer, pH 7.2 for 24 hours at 37° C.
For data set [3] the following is noted: in vivo; cited from earlier work.
The nature of data set [4]: Excretion study of 125I-labelled PEG derivatives in mice. Type of data set: in vivo, Male ICR mice. The following applies: for average % [125I] captured (urine and feces, % of total counts injected): 2 μCi i.v. tail vein, n=6; for radiolabeled compound excreted in the urine: 8 hr collection, share of captured radiolabel. Here is the method:
PEG(2,000)-α-L-tyrosine-ω-AHPDP and mPEG(2,000)-α-L-tyrosine were iodinated using a standard chloramine-T procedure (Bolton, Methods Enzymol. 124: 18-29, 1986). In brief, a 15 μL aliquot of PEG(2,000)-α-L-tyrosine-ω-AHPDP or mPEG(2,000)-α-L-tyrosine (2 μg/μL total weight) was mixed with 50 μL of […] phosphate buffer. To this was added 1 mCi of NaI^125 and 10 μL of Chloramine-T (1 μg/μL). The mixture was finger vortexed for 30s followed by addition of 100 μL-Cys (2 µg/µL), followed by another 30s of finger vortexing. The purification was carried out by reverse-phase chromatography. The samples were eluted at 37° C. using a curvilinear gradient of 0.1% trifluroacetic acid (TFA) in acetonitrile (19-63%) versus 0.1% aqueous TFA over 30 min at 1.5 ml.min^−1.
Male ICR mice (20-25 g) were administered either 2 μCi of PEG(2,000)-α-L-tyrosine-ω-AHPDP or mPEG(2,000)-α-L-tyrosine via tail vein injection (100 μL; i.v.). The mice were placed into metabolism cages and urine and feces were collected at the following time points (1, 2, 3, 4, 6, & 8 hr post-injection) (n=6).

“1-PEGmer: PEG-lysozyme multimer with one PEG(2,000)-α-AHPDP chain, separated by size exclusion [Example 1-PEGmer]”: the “adsorption to hydroxyapatite (in words)” value in data set [1] is given as “limited adsorption”. On to “2-PEGmer: PEG-lysozyme multimer with two PEG(2,000)-α-AHPDP chains, separated by size exclusion [Example 2-PEGmer]”, for which the “percentage adsorbed to hydroxyapatite” value in data set [1] was found to be 100%. Same read-out and setting: the same measure for “3-PEGmer: PEG-lysozyme multimer with three PEG(2,000)-α-AHPDP chains, separated by size exclusion [Example 3-PEGmer]”: 100%. For the molecule `NCCC(O)(P(=O)(O)O)P(=O)(O)O` [AHPDP, 3-amino-1-hydroxypropane-1,1-diphosphonic acid, reference compound], the “adsorption half-life on hydroxyapatite” value in data set [2] is on record as “around 1 min”. For `CC(O)(P(=O)(O)O)P(=O)(O)O` [Etidronate], the half-life in bone result in data set [3] is recorded as “greater than 90 days”.

In the case of “Native lysozyme: chicken egg white lysozyme, MW=14,300 Da, used as a model protein [reference compound]”, the “adsorption to hydroxyapatite (in words)” value in data set [1] is reported as “did not adsorb”. Regarding PEG(2,000)-α-methoxy-ω-L-tyrosine, the “average % [125I] captured (urine and feces, % of total counts injected)” value in data set [4] (8 hour time course) came out at 47.5%. The “radiolabeled compound excreted in the urine” value in data set [4] (i.v.) is given as “greater than 95%”. Moreover, in data set [2] (0.1-1.0 mg/ml), the “adsorption to hydroxyapatite (in words)” value is on record as “did not show any adsorption”. On to “PEG(2,000)-α-tyrosine-ω-AHPDP [PEG(2,000)-α-L-tyrosine-ω-AHPDP]”, for which the “average % [125I] captured (urine and feces, % of total counts injected)” value in data set [4] (8 hour time course) was 7.7%. Moreover, the “[125I] retained in the body versus mPEG(2,000)-α-L-tyrosine (in words)” value in data set [4] (i.v., 8-hour period) is reported as “significantly greater percentage”. Besides, the “fold lower percentage of [125I] captured than mPEG(2,000)-α-L-tyrosine” value in data set [4] (i.v., 8 hour time course) is on record as 5 fold. Further, in data set [4] (i.v.), the “radiolabeled compound excreted in the urine” value is recorded as around 95%. For the same molecule, the “adsorption half-life on hydroxyapatite” value in data set [2] is reported as 19 min. PEG(5,000)-α-amine-ω-AHPDP: the “adsorption half-life on hydroxyapatite” value in data set [2] came out at 45 min.

Source of the values: US8784849B2, “Hydroxyapatite-targeting poly(ethylene glycol) and related polymers” (Nektar Therapeutics, priority 2000, dated 2014).
